What was measured:
Format in all cases: in vivo
[1] = test system: Monochoria vaginalis; experiment: Test Example 1: herbicidal activity, application before weed generation in submerged conditions; conditions: Seventeenth Table
Outline: (§1)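 Alluvial soil in Wagner pots flooded to 4 cm water depth; weed seeds sown and 2.5 leaf stage rice seedlings transplanted. Emulsion diluted in water applied to water surface on sowing day at stated g/ha. Greenhouse 25° C. to 30° C.; effects scored 0–5 by herbicidal ratio after three weeks.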

[2] = test system: Scirpus juncoides; experiment: as above; conditions: Seventeenth Table
Outline: as §1

[3] = test system: Echinochloa oryzacola Vasing.; experiment: as above; conditions: Seventeenth Table
Outline: as §1

[4] = test system: Beta vulgaris ssp. vulgaris; experiment: Test Example 4: effect on crop by application to foliage (diluvial soil, plastic box); conditions: for f: Application herbicide amount 320 g/ha, effect on crop
Outline: (§2)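 Scores run from 0 (herbicidal ratio ≤5%) to 5 (≥90%, almost fully withered) and were assessed three weeks after foliar spraying. Seedlings had been raised for 14 days at 25-30° C in sterilized diluvial soil before treatment, with the emulsion diluted in water to the stated g/ha dose.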

[5] = test system: directly sowed Oryza sativa; experiment: as above; conditions: for d: Application herbicide amount 320 g/ha, effect on crop
Outline: as §2

[6] = test system: Triticum aestivum; experiment: as above; conditions: for e: Application herbicide amount 320 g/ha, effect on crop
Outline: as §2

[7] = test system: Zea mays; experiment: as above; conditions: for b: Application herbicide amount 320 g/ha, effect on crop
Outline: as §2

[8] = test system: Brassica campestris L.; experiment: as above; conditions: for g: Application herbicide amount 320 g/ha, effect on crop
Outline: as §2

[9] = test system: Glycine max; experiment: as above; conditions: for c: Application herbicide amount 320 g/ha, effect on crop
Outline: as §2

[10] = test system: transplanted Oryza sativa; experiment: Test Example 1: effect on crop, application before weed generation in submerged conditions; conditions: Seventeenth Table
Outline: as §1

[11] = Application herbicide amount 320 g/ha
[12] = Application herbicide amount 192 g/ha

## CCC(C)Sc1nnc2c(C(=O)Nc3nnc(C)o3)ccc(C(F)(F)F)n12 (stereo not drawn) [1-094]
[1]; [11]
  C: Monochoria vaginalis (herbicidal effect grade): 3 (Herbicidal ratio of 40% or more and less than 70%)
[2]; [11]
  B: Scirpus juncoides (herbicidal effect grade): 5 (Herbicidal ratio of 90% or more (almost completely withered))
[3]; [11]
  A: Echinochloa oryzicola Vasing. (herbicidal effect grade): 5 (Herbicidal ratio of 90% or more (almost completely withered))
[4]
  f: 5 (Herbicidal ratio of 90% or more (almost completely withered))
[5]
  d: 3 (Herbicidal ratio of 40% or more and less than 70%)
[6]
  e: 1 (Herbicidal ratio of 5% or more and less than 20%)
[7]
  b: 0 (Herbicidal ratio of 5% or less (almost no effect))
[8]
  g: 3 (Herbicidal ratio of 40% or more and less than 70%)
[9]
  c: 4 (Herbicidal ratio of 70% or more and less than 90%)
[10]; [11]
  a: transplanted Oryza sativa (effect on crop grade): 0 (Herbicidal ratio of 5% or less (almost no effect))

## Cc1nnc(NC(=O)c2ccc(C(F)(F)F)n3c(SC(C)(C)C)nnc23)o1 [1-095]
[1]; [11]
  C: Monochoria vaginalis (herbicidal effect grade): 5 (Herbicidal ratio of 90% or more (almost completely withered))
[2]; [11]
  B: Scirpus juncoides (herbicidal effect grade): 5 (Herbicidal ratio of 90% or more (almost completely withered))
[3]; [11]
  A: Echinochloa oryzicola Vasing. (herbicidal effect grade): 5 (Herbicidal ratio of 90% or more (almost completely withered))
[4]
  f: 5 (Herbicidal ratio of 90% or more (almost completely withered))
[5]
  d: 3 (Herbicidal ratio of 40% or more and less than 70%)
[6]
  e: 1 (Herbicidal ratio of 5% or more and less than 20%)
[7]
  b: 0 (Herbicidal ratio of 5% or less (almost no effect))
[8]
  g: 3 (Herbicidal ratio of 40% or more and less than 70%)
[9]
  c: 2 (Herbicidal ratio of 20% or more and less than 40%)
[10]; [11]
  a: transplanted Oryza sativa (effect on crop grade): 1 (Herbicidal ratio of 5% or more and less than 20%)

## Cc1nnc(NC(=O)c2ccc(C(F)(F)F)n3c(N4CCOCC4)nnc23)o1 [1-096]
[1]; [11]
  C: Monochoria vaginalis (herbicidal effect grade): 4 (Herbicidal ratio of 70% or more and less than 90%)
[2]; [11]
  B: Scirpus juncoides (herbicidal effect grade): 4 (Herbicidal ratio of 70% or more and less than 90%)
[3]; [11]
  A: Echinochloa oryzicola Vasing. (herbicidal effect grade): 5 (Herbicidal ratio of 90% or more (almost completely withered))
[4]
  f: 5 (Herbicidal ratio of 90% or more (almost completely withered))
[5]
  d: 4 (Herbicidal ratio of 70% or more and less than 90%)
[6]
  e: 1 (Herbicidal ratio of 5% or more and less than 20%)
[7]
  b: 4 (Herbicidal ratio of 70% or more and less than 90%)
[8]
  g: 5 (Herbicidal ratio of 90% or more (almost completely withered))
[9]
  c: 4 (Herbicidal ratio of 70% or more and less than 90%)
[10]; [11]
  a: transplanted Oryza sativa (effect on crop grade): 3 (Herbicidal ratio of 40% or more and less than 70%)

## CC(C)c1nnc2c(C(=O)Nc3nnc(C(F)(F)F)o3)ccc(C(F)(F)F)n12 [1-100]
[1]; [11]
  C: Monochoria vaginalis (herbicidal effect grade): 3 (Herbicidal ratio of 40% or more and less than 70%)
[2]; [11]
  B: Scirpus juncoides (herbicidal effect grade): 3 (Herbicidal ratio of 40% or more and less than 70%)
[3]; [11]
  A: Echinochloa oryzicola Vasing. (herbicidal effect grade): 4 (Herbicidal ratio of 70% or more and less than 90%)
[4]
  f: 3 (Herbicidal ratio of 40% or more and less than 70%)
[5]
  d: 1 (Herbicidal ratio of 5% or more and less than 20%)
[6]
  e: 0 (Herbicidal ratio of 5% or less (almost no effect))
[7]
  b: 0 (Herbicidal ratio of 5% or less (almost no effect))
[8]
  g: 0 (Herbicidal ratio of 5% or less (almost no effect))
[9]
  c: 0 (Herbicidal ratio of 5% or less (almost no effect))
[10]; [11]
  a: transplanted Oryza sativa (effect on crop grade): 0 (Herbicidal ratio of 5% or less (almost no effect))

## COc1cccc(Nc2nnc3c(C(=O)Nc4nnc(C)o4)ccc(C(F)(F)F)n23)n1 [1-102]
[1]; [11]
  C: Monochoria vaginalis (herbicidal effect grade): 2 (Herbicidal ratio of 20% or more and less than 40%)
[2]; [11]
  B: Scirpus juncoides (herbicidal effect grade): 2 (Herbicidal ratio of 20% or more and less than 40%)
[3]; [11]
  A: Echinochloa oryzicola Vasing. (herbicidal effect grade): 3 (Herbicidal ratio of 40% or more and less than 70%)
[4]
  f: 4 (Herbicidal ratio of 70% or more and less than 90%)
[5]
  d: 1 (Herbicidal ratio of 5% or more and less than 20%)
[6]
  e: 0 (Herbicidal ratio of 5% or less (almost no effect))
[7]
  b: 0 (Herbicidal ratio of 5% or less (almost no effect))
[8]
  g: 2 (Herbicidal ratio of 20% or more and less than 40%)
[9]
  c: 0 (Herbicidal ratio of 5% or less (almost no effect))
[10]; [11]
  a: transplanted Oryza sativa (effect on crop grade): 2 (Herbicidal ratio of 20% or more and less than 40%)

## Cc1cc(C(=O)Nc2nnnn2C)c2nnc(C(C)C)n2c1C(F)(F)F [2-050]
[1]; [12]
  C: Monochoria vaginalis (herbicidal effect grade): 3 (Herbicidal ratio of 40% or more and less than 70%)
[2]; [12]
  B: Scirpus juncoides (herbicidal effect grade): 2 (Herbicidal ratio of 20% or more and less than 40%)
[3]; [12]
  A: Echinochloa oryzicola Vasing. (herbicidal effect grade): 4 (Herbicidal ratio of 70% or more and less than 90%)
[4]; foliage application, 192 g/ha
  f (Beta vulgaris ssp. vulgaris) effect on crop grade: 3 (Herbicidal ratio of 40% or more and less than 70%)
[5]; foliage application, 192 g/ha
  d (directly sowed Oryza sativa) effect on crop grade: 3 (Herbicidal ratio of 40% or more and less than 70%)
[6]; foliage application, 192 g/ha
  e (Triticum aestivum) effect on crop grade: 0 (Herbicidal ratio of 5% or less (almost no effect))
[7]; foliage application, 192 g/ha
  b (Zea mays) effect on crop grade: 0 (Herbicidal ratio of 5% or less (almost no effect))
[8]; foliage application, 192 g/ha
  g (Brassica campestris L.) effect on crop grade: 0 (Herbicidal ratio of 5% or less (almost no effect))
[9]; foliage application, 192 g/ha
  c (Glycine max) effect on crop grade: 0 (Herbicidal ratio of 5% or less (almost no effect))
[10]; [12]
  a: transplanted Oryza sativa (effect on crop grade): 2 (Herbicidal ratio of 20% or more and less than 40%)

Reference: patent US9708314B2, “Heterocyclic amide compound” (NISSAN CHEMICAL INDUSTRIES, LTD., priority 2013, dated 2017)
